From PubChem BioAssay AID2060605 (Molecular Pharmacology Branch, DTP, NCI, 2025)

Test system: 947758-054-R-J2-PDC spheroid growth, percent test/control
Assay: Anticancer human tumor 947758-054-R-J2-PDC patient-derived colon adenocarcinoma cell line growth inhibition [CLK]
Settings: spheroids with HUVEC and MSC; for IC50: curve of first compound; for viability, T/C: stronger effect = lower value
Method in brief: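 Patient-derived tumor cells grown as complex spheroids with HUVEC endothelial cells and mesenchymal stem cells, treated with drug combinations. Concentrations descend in half-log steps from near clinical Cmax, or from 10 microM if Cmax unknown.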

[1] = second compound 0.0316 µM, first compound 0.0316 µM
[2] = second compound 0.0316 µM, first compound 0.1 µM
[3] = second compound 0.0316 µM, first compound 0.316 µM
[4] = second compound 0.0316 µM, first compound 1 µM
[5] = second compound 0.1 µM, first compound 0.0316 µM
[6] = second compound 0.1 µM, first compound 0.1 µM
[7] = second compound 0.1 µM, first compound 0.316 µM
[8] = second compound 0.1 µM, first compound 1 µM
[9] = second compound 0.316 µM, first compound 0.0316 µM
[10] = second compound 0.316 µM, first compound 0.1 µM
[11] = second compound 0.316 µM, first compound 0.316 µM
[12] = second compound 0.316 µM, first compound 1 µM
[13] = second compound 1 µM, first compound 0.0316 µM
[14] = second compound 1 µM, first compound 0.1 µM
[15] = second compound 1 µM, first compound 0.316 µM
[16] = second compound 1 µM, first compound 1 µM
[17] = second compound 3.16 µM, first compound 0.0316 µM
[18] = second compound 3.16 µM, first compound 0.1 µM
[19] = second compound 3.16 µM, first compound 0.316 µM
[20] = second compound 3.16 µM, first compound 1 µM
[21] = second compound 10 µM, first compound 0.0316 µM
[22] = second compound 10 µM, first compound 0.1 µM
[23] = second compound 10 µM, first compound 0.316 µM
[24] = second compound 10 µM, first compound 1 µM
[25] = second compound 0.0316 µM, first compound 0.00316 µM
[26] = second compound 0.0316 µM, first compound 0.01 µM
[27] = second compound 0.1 µM, first compound 0.00316 µM
[28] = second compound 0.1 µM, first compound 0.01 µM
[29] = second compound 0.316 µM, first compound 0.00316 µM
[30] = second compound 0.316 µM, first compound 0.01 µM
[31] = second compound 1 µM, first compound 0.00316 µM
[32] = second compound 1 µM, first compound 0.01 µM
[33] = second compound 3.16 µM, first compound 0.00316 µM
[34] = second compound 3.16 µM, first compound 0.01 µM
[35] = second compound 10 µM, first compound 0.00316 µM
[36] = second compound 10 µM, first compound 0.01 µM
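Further: spheroids exposed to compounds for one week before readout.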
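Wherever viability, T/C is given: 100% = DMSO vehicle control wells.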

Question: How did the IC50 (second compound 0.0316 µM) turn out when CC(Nc1ccc2c(c1)OCCn1cc(N3C(=O)OCC3C(F)F)nc1-2)C(N)=O (stereo unspecified) + CN1CCN(c2cc(C(=O)Nc3cc4cc(-c5cnn(C)c5)ccc4cn3)ccn2)CC1 was run?
Answer: > 10000 nM

Question: And the IC50 (second compound 0.1 µM)?
Answer: 297 nM

Question: And the IC50 (second compound 0.316 µM)?
Answer: < 31.6 nM

Question: And the IC50 (second compound 1 µM)?
Answer: < 31.6 nM

Question: And the IC50 (second compound 3.16 µM)?
Answer: < 31.6 nM

Question: What about the IC50 (second compound 10 µM) of the same compound?
Answer: < 31.6 nM

Question: And the viability, T/C [1]?
Answer: 138%

Question: And the viability, T/C [2]?
Answer: 153%

Question: And the viability, T/C [3]?
Answer: 137%

Question: What about the viability, T/C [4] of the same compound?
Answer: 88.2%

Question: And the viability, T/C (second compound 0.0316 µM, first compound 3.16 µM)?
Answer: 94.5%

Question: What about the viability, T/C (second compound 0.0316 µM, first compound 10 µM) of the same compound?
Answer: 74.2%

Question: And the viability, T/C [5]?
Answer: 165%

Question: And the viability, T/C [6]?
Answer: 127%

Question: What about the viability, T/C [7] of the same compound?
Answer: 45.4%

Question: And the viability, T/C [8]?
Answer: 39.6%

Question: And the viability, T/C (second compound 0.1 µM, first compound 3.16 µM)?
Answer: 44.5%

Question: And the viability, T/C (second compound 0.1 µM, first compound 10 µM)?
Answer: 29.6%

Question: And the viability, T/C [9]?
Answer: 5.46%

Question: What about the viability, T/C [10] of the same compound?
Answer: 4.48%

Question: What about the viability, T/C [11] of the same compound?
Answer: 4.7%

Question: What about the viability, T/C [12] of the same compound?
Answer: 3.14%

Question: And the viability, T/C (second compound 0.316 µM, first compound 3.16 µM)?
Answer: 3.86%

Question: And the viability, T/C (second compound 0.316 µM, first compound 10 µM)?
Answer: 1.64%

Question: And the viability, T/C [13]?
Answer: 0.13%

Question: What about the viability, T/C [14] of the same compound?
Answer: 0.18%

Question: And the viability, T/C [15]?
Answer: 0.13%

Question: And the viability, T/C [16]?
Answer: 0.11%

Question: What about the viability, T/C (second compound 1 µM, first compound 3.16 µM) of the same compound?
Answer: 0.11%

Question: What about the viability, T/C (second compound 1 µM, first compound 10 µM) of the same compound?
Answer: 0.2%

Question: And the viability, T/C [17]?
Answer: 0.24%

Question: What about the viability, T/C [18] of the same compound?
Answer: 0.19%

Question: And the viability, T/C [19]?
Answer: 0.25%

Question: What about the viability, T/C [20] of the same compound?
Answer: 0.22%

Question: And the viability, T/C (second compound 3.16 µM, first compound 3.16 µM)?
Answer: 0.31%

Question: What about the viability, T/C (second compound 3.16 µM, first compound 10 µM) of the same compound?
Answer: 0.26%

Question: And the viability, T/C [21]?
Answer: 0.35%

Question: What about the viability, T/C [22] of the same compound?
Answer: 0.5%

Question: And the viability, T/C [23]?
Answer: 0.84%

Question: And the viability, T/C [24]?
Answer: 0.31%

Question: What about the viability, T/C (second compound 10 µM, first compound 3.16 µM) of the same compound?
Answer: 1.57%

Question: And the viability, T/C (second compound 10 µM, first compound 10 µM)?
Answer: 0.63%

Question: What does the source list for CCN1CCN(Cc2ccc(Nc3ncc(F)c(-c4cc(F)c5nc(C)n(C(C)C)c5c4)n3)nc2)CC1 + CN1CCN(c2cc(C(=O)Nc3cc4cc(-c5cnn(C)c5)ccc4cn3)ccn2)CC1?
Answer: IC50 (second compound 0.0316 µM): > 1000 nM; IC50 (second compound 0.1 µM): 461 nM; IC50 (second compound 0.316 µM): < 3.16 nM; IC50 (second compound 1 µM): < 3.16 nM; IC50 (second compound 3.16 µM): < 3.16 nM; IC50 (second compound 10 µM): < 3.16 nM; viability, T/C [25]: 145%; viability, T/C [26]: 133%; viability, T/C [1]: 176%; viability, T/C [2]: 245%; viability, T/C [3]: 98.2%; viability, T/C [4]: 46.5%; viability, T/C [27]: 134%; viability, T/C [28]: 141%; viability, T/C [5]: 105%; viability, T/C [6]: 108%; viability, T/C [7]: 52.7%; viability, T/C [8]: 32.8%; viability, T/C [29]: 4.74%; viability, T/C [30]: 7.5%; viability, T/C [9]: 5.93%; viability, T/C [10]: 9.21%; viability, T/C [11]: 14.7%; viability, T/C [12]: 13.2%; viability, T/C [31]: 0.18%; viability, T/C [32]: 2.83%; viability, T/C [13]: 0.19%; viability, T/C [14]: 0.19%; viability, T/C [15]: 0.18%; viability, T/C [16]: 2.66%; viability, T/C [33]: 0.83%; viability, T/C [34]: 0.69%; viability, T/C [17]: 0.21%; viability, T/C [18]: 0.28%; viability, T/C [19]: 2.63%; viability, T/C [20]: 3.69%; viability, T/C [35]: 0.27%; viability, T/C [36]: 1.7%; viability, T/C [21]: 0.31%; viability, T/C [22]: 0.4%; viability, T/C [23]: 0.75%; viability, T/C [24]: 2.67%

Question: What does the source list for COc1c(OCCCN2CCOCC2)ccc2c3n(c(=NC(=O)c4cnc(N)nc4)nc12)CCN3 + CN1CCN(c2cc(C(=O)Nc3cc4cc(-c5cnn(C)c5)ccc4cn3)ccn2)CC1?
Answer: IC50 (second compound 0.0316 µM): 184 nM; IC50 (second compound 0.1 µM): 29 nM; IC50 (second compound 0.316 µM): < 3.16 nM; IC50 (second compound 1 µM): < 3.16 nM; IC50 (second compound 3.16 µM): < 3.16 nM; IC50 (second compound 10 µM): < 3.16 nM; viability, T/C [25]: 157%; viability, T/C [26]: 133%; viability, T/C [1]: 90.8%; viability, T/C [2]: 75.6%; viability, T/C [3]: 28.7%; viability, T/C [4]: 18.1%; viability, T/C [27]: 188%; viability, T/C [28]: 147%; viability, T/C [5]: 40.3%; viability, T/C [6]: 33.4%; viability, T/C [7]: 17.9%; viability, T/C [8]: 10%; viability, T/C [29]: 7.04%; viability, T/C [30]: 6.09%; viability, T/C [9]: 3.95%; viability, T/C [10]: 2.44%; viability, T/C [11]: 0.75%; viability, T/C [12]: 1%; viability, T/C [31]: 0.16%; viability, T/C [32]: 0.18%; viability, T/C [13]: 0.15%; viability, T/C [14]: 0.1%; viability, T/C [15]: 1.96%; viability, T/C [16]: 1.55%; viability, T/C [33]: 0.48%; viability, T/C [34]: 0.95%; viability, T/C [17]: 0.19%; viability, T/C [18]: 0.15%; viability, T/C [19]: 1.63%; viability, T/C [20]: 2.02%; viability, T/C [35]: 0.31%; viability, T/C [36]: 3.4%; viability, T/C [21]: 0.32%; viability, T/C [22]: 0.27%; viability, T/C [23]: 1.44%; viability, T/C [24]: 1.28%
